From US20250074911A1, “MACROCYCLIC BTK INHIBITORS” (Crossfire Oncology Holding B.V., priority 2021, published 2025)

Experiments:
BTK T474I = BTK T474I (Homo sapiens (Human), UniProt Q06187, T474I); test: Binding kinetics measurements (Surface Plasmon Resonance) on BTK T474I; settings: for Kd: binding affinity by Surface Plasmon Resonance (SPR); for Tau (h) BTK T474I (Act): target residence time, SPR
Summary of the method: (§1)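 SPR on biotinylated wild-type or mutant human BTK captured on streptavidin chips (immobilized at 4° C, assay at 22° C), buffer with 1% DMSO, 30 μl/min. Single-cycle kinetics, five injections of 3.16-316 nM compound; double-referenced sensorgrams fitted (two-state model for induced fit), duplicate ka, kd, KD geometrically averaged.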

BTK T316A = BTK T316A (Homo sapiens (Human), UniProt Q06187, T316A); test: Binding kinetics measurements (Surface Plasmon Resonance) on BTK T316A; settings: for Kd: binding affinity by Surface Plasmon Resonance (SPR); for Tau (h) BTK T316A (Act): target residence time, SPR
Chain of BTK T316A (Q06187 whole entry T316A): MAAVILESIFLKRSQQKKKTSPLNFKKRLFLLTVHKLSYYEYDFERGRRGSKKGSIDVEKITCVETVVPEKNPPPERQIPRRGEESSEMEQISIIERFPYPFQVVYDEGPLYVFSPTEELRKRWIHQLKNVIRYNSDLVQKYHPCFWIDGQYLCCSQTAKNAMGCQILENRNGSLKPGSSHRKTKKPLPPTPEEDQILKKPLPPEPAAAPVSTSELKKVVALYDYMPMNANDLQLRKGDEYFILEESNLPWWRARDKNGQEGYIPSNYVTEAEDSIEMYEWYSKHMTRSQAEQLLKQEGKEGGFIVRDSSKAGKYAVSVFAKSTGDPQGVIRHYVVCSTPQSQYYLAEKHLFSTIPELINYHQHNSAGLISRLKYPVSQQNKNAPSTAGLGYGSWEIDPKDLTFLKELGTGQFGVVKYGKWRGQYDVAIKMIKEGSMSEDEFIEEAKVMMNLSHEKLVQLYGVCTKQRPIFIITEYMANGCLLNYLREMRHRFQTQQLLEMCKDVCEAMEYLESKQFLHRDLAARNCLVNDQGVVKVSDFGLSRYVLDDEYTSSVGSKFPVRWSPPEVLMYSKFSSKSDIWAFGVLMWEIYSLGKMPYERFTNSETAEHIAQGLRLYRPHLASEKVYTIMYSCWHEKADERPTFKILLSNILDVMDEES
Summary of the method: as §1

[1] = molecular target: full-length BTK C481S enzyme (Homo sapiens (Human), UniProt Q06187, C481S); test: Biochemical kinase assay BTK C481S (IMAP)
Chain of full-length BTK C481S enzyme (Q06187 whole entry C481S): as the sequence (Q06187 whole entry T316A) above, with A316T, C481S counted along it
Summary of the method: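 Full-length BTK C481S (1.2 nM) was pre-incubated with compound for 1 h at room temperature in the dark, then reacted with fluorescein-labelled MBP-derived peptide (50 nM) and ATP (7 μM) for 2 h. Reactions were quenched with IMAP binding solution, and IC50 values were derived from fluorescence polarization.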

BTK T474S = BTK T474S (Homo sapiens (Human), UniProt Q06187, T474S); test: Binding kinetics measurements (Surface Plasmon Resonance) on BTK T474S; settings: for residence time: SPR binding kinetics, BTK T474S, read-out: Tau (h) BTK T474S (Act), target residence time (converted); for Kd: binding affinity by Surface Plasmon Resonance (SPR)
Chain of BTK T474S (Q06187 whole entry T474S): as the sequence (Q06187 whole entry T316A) above, with A316T, T474S counted along it
Summary of the method: as §1

[2] = molecular target: full-length wt-BTK enzyme (Homo sapiens (Human), UniProt Q06187); test: Biochemical kinase assay wt-BTK (IMAP)
Chain of full-length wt-BTK enzyme (Q06187 whole entry): as the sequence (Q06187 whole entry T316A) above, with A316T counted along it
Summary of the method: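 IMAP fluorescence polarization assay: 1.2 nM enzyme pre-incubated 1 h with compound at room temperature, then 50 nM fluorescein-labeled MBP-derived peptide and 4 μM ATP added. Reaction ran 2 h at room temperature in the dark before quenching with IMAP binding solution.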

[3] = system: wt-REC-1 mantle cell lymphoma cells; test: Cell proliferation assay wt-REC-1 (ATPlite, 72 hours); type: cell-based; settings: 72 h; read-out: IC50 wt-REC-1
Summary of the method: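 Luminescent viability read over 72 h, start-of-incubation signal recorded separately to separate growth from cell death. Percentage growth referenced to compound-free 0.3% DMSO wells; IC50 from 4-parameter logistic fit.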

BTK C481S = BTK C481S (Homo sapiens (Human), UniProt Q06187, C481S); test: Binding kinetics measurements (Surface Plasmon Resonance) on BTK C481S; settings: for Kd: binding affinity by Surface Plasmon Resonance (SPR); for Tau (h) BTK C418S (Act): target residence time for BTK C481S, SPR
Chain of BTK C481S (Q06187 whole entry C481S): as the sequence (Q06187 whole entry T316A) above, with A316T, C481S counted along it
Summary of the method: as §1

[4] = system: wt-TMD8 diffuse large B-cell lymphoma cells; test: Cell proliferation assay wt-TMD8 (ATPlite, 120 hours); type: cell-based; settings: B-cell; wt-TMD8 cells, 120 hours, ATPlite; read-out: IC50 wt-TMD8
Summary of the method: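 wt-TMD8 DLBCL cells, 1600 per well in RPMI-1640 with 10% FBS, rested ≥5 h then exposed to compound for 120 h at 37° C, 5% CO2. Viability read by ATPlite luminescence; percentage growth calculated relative to start-of-incubation signal and untreated 0.3% DMSO maximum growth.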

Chain of BTK T474I (Q06187 whole entry T474I): as the sequence (Q06187 whole entry T316A) above, with A316T, T474I counted along it

Compound | Kd (BTK T474I) | Tau (h) BTK T474I (Act) (BTK T474I) | Kd (BTK T316A) | Tau (h) BTK T316A (Act) (BTK T316A) | IC50 [1] | residence time (BTK T474S) | Kd (BTK T474S) | IC50 [2] | IC50 [3] | Kd (BTK C481S) | Tau (h) BTK C418S (Act) (BTK C481S) | IC50 [4]
Nc1ncc2c3c1c(-c1ccc(C(=O)Nc4cc(C(F)(F)F)ccn4)cc1)nn3[C@@H]1CCC[C@H](C1)NC(=O)CCOC/C=C/2 [Example 25] | < 2 nM | 3.02 h | < 5 nM | 3.55 h | < 5 nM | 2.64 h | < 3 nM | < 5 nM | < 100 nM | < 5 nM | 12.17 h | < 100 nM
C[C@@H]1CC(=O)N[C@@H]2CCC[C@H](C2)n2nc(-c3ccc(C(=O)Nc4cc(C(F)(F)F)ccn4)cc3)c3c(N)ncc(c32)/C=C/CCN1 [Example 45] | < 2 nM | 2.64 h | < 5 nM | 6.06 h | < 5 nM | 2.94 h | < 3 nM | < 5 nM | < 100 nM | < 5 nM | 3.17 h | < 100 nM
N#Cc1ccnc(NC(=O)c2ccc(-c3nc4n5c(cnc(N)c35)/C=C/CCCCCC(=O)N[C@@H]3CCC[C@@H]4C3)cc2)c1 [Example 184] |  | 0.85 h |  |  | < 5 nM |  |  | < 5 nM | < 100 nM | < 5 nM | 2.43 h | < 100 nM
N#Cc1ccnc(NC(=O)c2ccc(-c3nc4n5c(cnc(N)c35)/C=C/CCOCCC(=O)N[C@@H]3CC[C@@H]4C3)cc2)c1 [Example 201] |  | 1.15 h |  |  | < 5 nM |  |  | < 5 nM | < 100 nM |  | 1.91 h | < 100 nM
N#Cc1ccnc(NC(=O)c2ccc(-c3nc4n5c(cnc(N)c35)/C=C/CCCCCC(=O)N[C@@H]3CC[C@@H]4C3)cc2)c1 [Example 204] |  | 0.90 h |  |  | < 5 nM |  |  | < 5 nM | < 100 nM | < 5 nM |  | < 100 nM
